The values below are quoted from earlier work in US20080044452A1, “DRUG DELIVERY SYSTEM FOR TREATMENT OF TRANSITIONAL CELL CARCINOMA” (priority 2006, published 2008).

Structures are written as SMILES.

Consider `CO[C@@]12[C@H](COC(N)=O)C3=C(C(=O)C(C)=C(N)C3=O)N1C[C@@H]1N[C@@H]12` [Mitomycin C], for which the “stability in acidic urine” value is listed as “not stable in acidic urine”.
